Measured values from US7354926B2, “Molecules derived from noraporphine” (Sederma SAS, priority 2002, dated 2008).

Legend:
[1] = Inhibition of peroxidation induced on liposomes by HO2/FeCl2 (Fenton reaction); conditions: 0.06 mmol/l; similar protocol with HO2/FeCl2 added to the liposomes
Protocol: (§1) In order to seek an antioxidant activity, we evaluated 2,9-diacetyloxy-1,10-dimethoxy-6-methyl-noraporphine (compound II) effect on the inhibition of peroxidation induced on liposomes by UVA or pair HO2/FeCl2.
(§2) The liposomes, once manufactured, receive the products to be tested in solution. Then they are put under UVA lamp and are irradiated to 10 J/cm^2. The liposomes are incubated at 45° C. After 24 hours, the lipidic peroxidation is quantified by estimating the rate of combined dienes markers. The effect of the product is compared with negative control.
A strong inhibition (−60% with 0.06 mmol/l) is also obtained in a similar protocol when HO2/FeCl2. is added (Fenton reaction) to the solution of liposomes.

[2] = test system: G-3-PDH (Glycerol-3-Phosphate deshydrogenase) activity in fibroblasts 3T3 L1 / pre-adipocytes; assay: Inhibition of lipogenesis (in vitro): G-3-PDH activity in differentiating 3T3 L1 pre-adipocytes; type: cell-based; conditions: for ACTIVITY G-3-PDH/10^−6 cells (inhibition in % of the witness): average of 3 independent tests
Protocol: The following test is based on the fact that a cocktail from substances (hormonal messengers) induce the fibroblasts 3T3 L1 differentiation, in culture, into pre-adipocytes then in adipocytes charged with lipids.
The culture proceeds in three stages: cellular multiplication until confluence, addition of cocktail of differentiation (stage during which the initial pre-adipocytes are obtained (72 hours), then active differentiation with lipogenesis stimulation (approximately 72 hours) at the end of which apparent storage in lipidic droplets is then definitely visible under microscope.
The enzyme G-3-PDH (Glycerol-3-Phosphate deshydrogenase), essential to triglyceride synthesis is expressed very strongly during this active stage of lipidic storage.
The product to be tested is added at the second step.
After the incubation period the G-3-PDH activity is compared between the pre-adipocytes witnesses and those incubated in the presence of the tested product. Under these conditions, a product which inhibits the lipogenesis causes a fall of the G-3-PDH activity.
After the induced differentiation, the solution to test is added to the culture of pre-adipocytes, here a 2,9-diacetyloxy-1,10-dimethoxy-6-methyl-noraporphine solution (compound II). In parallel, two witness cultures, one in negative and the other in positive are carried out.
At the end of the incubation, the cells are taken and lysed and the test is carried out on the intracellular contents.
The G-3-PDH activity is measured by NADH disappearance (λ=340 nm).
The enzymatic activity values are standardized with the number of cells.

[3] = test system: normal human melanocytes (MHN); assay: Inhibition of melanin synthesis (in vitro) in culture of normal human melanocytes; type: cell-based; conditions: 7 days of exposure, various concentrations, vs control cells, normalized on protein content
Protocol: The efficacy of the products on melanization was tested in culture of normal human melanocytes (MHN). This culture medium is conventionally used to test variations in melanin levels. The cells are incubated in the presence of the test product for 7 days while the control cells are incubated in the culture medium alone.
After 7 days, the total melanin (phaeomelanin and eumelanin) present in the cells is determined after cell lysis and dissolution in sodium hydroxide, the assay is colorimetric.
The melanin level produced under exposure to the test product at various concentrations are compared to those obtained with the control cells. The data are normalized on the protein content of the sample.
The inhibition of synthesis observed after 7 days of exposure to those products is dependent on the test concentration. Inhibition varies from −28 to −51%.

[4] = Inhibition of peroxidation induced on liposomes by UVA; conditions: for Inhibition perox. UVA: UVA 10 J/cm^2, 45° C., 24 hours, combined dienes
Protocol: as §1, §2

## COc1cc2c(cc1OC(C)=O)CC1c3c(cc(OC(C)=O)c(OC)c3-2)CCN1C (centres unmarked) [compound II, 2,9-diacetyloxy-1,10-dimethoxy-6-methyl-noraporphine]
[1]
  Inhibition of peroxidation, HO2/FeCl2 (Fenton reaction): −60%
[2]; 0.03 mmol/l
  ACTIVITY G-3-PDH/10^−6 cells (inhibition in % of the witness): −49%
[2]; 0.06 mmol/l
  ACTIVITY G-3-PDH/10^−6 cells (inhibition in % of the witness): −67%
[2]; compared to witness cells
  Morphology of the preadipocytes under microscope: few lipidic inclusions
[3]
  Inhibition of melanin synthesis: −28 to −51%
[4]; 0.03 mmol/l
  Inhibition perox. UVA: −93%
[4]; 0.06 mmol/l
  Inhibition perox. UVA: −87%
[4]; 0.09 mmol/l
  Inhibition perox. UVA: −89%
[4]; 0.15 mmol/l
  Inhibition perox. UVA: ≈−100%
[4]; 0.30 mmol/l
  Inhibition perox. UVA: ≈−100%
[4]; with the tested concentrations (0.03-0.30 mmol/l)
  Inhibition of lipidic peroxidation UVA induced (in words): almost completely inhibits
